From patent publication US8119661B2, “Piperidine derivatives and their use as muscarinic receptor modulators” (AstraZeneca AB, priority 2007, dated 2012)

Legend:
[1] = test system: SNL rats (heat hyperalgesia); assay: Rat SNL heat hyperalgesia assay; type: in vivo; details: sc, male Sprague Dawley SNL rats, paw withdrawal latency, morphine s.c. 30 min before testing, example 2 per os 60 min before testing, combination ratio example 2:morphine 1:1.56
Procedure: Rats undergo spinal nerve ligation surgery as described in Kim and Chung (1992) (reference 1). Briefly, rats are anesthetized with isoflurane, the left L5 and L6 are isolated and tightly ligated with 4-0 silk thread. The wound is closed by suturing and applying tissue adhesive. Compound testing is performed at day 9 to day 36 post-surgery.
For behavioral testing, the animals are acclimatized to the test room environment for a minimum of 30 min. In order to assess the degree of hyperalgesia, the animals are placed on a glass surface (maintained at 30° C.), and a heat-source is focused onto the plantar surface of the left paw. The time from the initiation of the heat until the animal withdraws the paw is recorded. Each animal is tested twice (with an interval of 10 min between the two tests). A decrease in Paw Withdrawal Latency (PWL, average of the two tests) relative to naïve animals indicates a hyperalgesic state. The rats with a PWL of at least 2 seconds less than average PWL of Naïve group are selected for compound testing. […]
In order to assess the degree of heat hyperalgesia, the rats were individually placed in Plexiglas boxes on the glass surface (maintained at 30° C.) of a paw thermal stimulator system (Model 390, series 8, IITC Life Science, Woodland Hills, USA) and allowed to acclimate for 30 min. […] Paw withdrawal latencies (PWLs) were calculated as the mean of the two values.

[2] = biological target: T1, hM1 (human Muscarinic receptor subtype 1) (Homo sapiens, UniProt P11229); assay: Human M1 calcium mobilization FLIPR assay; type: cell-based; details: CHO cells expressing hM1, intracellular Ca2+ release
T1 construct: expressed in transfected cells; host or cells: CHO cells (Chinese hamster ovary cells, ATCC)
T1 sequence (P11229 1-460): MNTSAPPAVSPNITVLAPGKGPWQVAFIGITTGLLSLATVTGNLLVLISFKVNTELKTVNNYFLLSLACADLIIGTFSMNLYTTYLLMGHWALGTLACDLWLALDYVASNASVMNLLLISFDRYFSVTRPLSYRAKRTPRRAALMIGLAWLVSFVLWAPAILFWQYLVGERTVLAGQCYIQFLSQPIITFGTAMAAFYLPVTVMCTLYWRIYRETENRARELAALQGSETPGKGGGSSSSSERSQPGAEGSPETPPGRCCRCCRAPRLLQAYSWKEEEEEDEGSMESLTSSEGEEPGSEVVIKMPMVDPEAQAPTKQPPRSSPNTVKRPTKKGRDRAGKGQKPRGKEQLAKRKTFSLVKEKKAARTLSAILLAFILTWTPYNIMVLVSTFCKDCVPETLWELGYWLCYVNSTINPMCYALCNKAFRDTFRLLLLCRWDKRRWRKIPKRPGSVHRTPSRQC
Procedure: The compound activity in the present invention (EC50 or IC50) is measured using a 384 plate-based imaging assay that monitors drug induced intracellular Ca^2+ release in whole cells. Activation of hM1 (human Muscarinic receptor subtype 1, gene bank access NM_000738), rM1 (rat Muscarinic receptor subtype 1, gene bank access NM_080773), hM3 (human Muscarinic receptor subtype 3, gene bank access NM_000740NM_000740) and hM5 (human Muscarinic receptor subtype 5, gene bank access NM_0121258), receptors expressed in CHO cells (Chinese hamster ovary cells, ATCC) is quantified in a Molecular Devices FLIPR II™ instrument as an increase in fluorescent signal. Inhibition of hM3 and hM5 by compounds is determined by the decrease in fluorescent signal in response to 2 nM acetylcholine activation.
Prior to experiment, the cell culture medium is removed from the plates by inversion. […] Plates are incubated at 37° C. for 60 minutes prior to start the experiment. The incubation is terminated by washing the cells four times in assay buffer, leaving a residual 25 μl buffer per well. Cell plates are then transferred to the FLIPR, ready for compound additions.
The day of experiment, acetylcholine and compounds are diluted in assay buffer in three-fold concentration range (10 points serial dilution) for addition by FLIPR instrument. For all calcium assays, a baseline reading is taken for 10 seconds followed by the addition of 12.5 μl of compounds, resulting in a total well volume of 37.5 μl. Data is collected every second for 60 pictures and then every 6 seconds for 20 pictures prior to the addition of agonist. For hM3 and hM5, before agonist addition, a second baseline reading is taken for 10 seconds followed by the addition of 12.5 μl of agonist or buffer, producing a final volume of 50 μl. After agonist stimulation, the FLIPR continues to collect data every second for 60 pictures and then every 6 seconds for 20 pictures. The fluorescence emission is read using filter 1 (emission 510-570 nm) by the FLIPR on board CCD camera.
Calcium mobilization output data are calculated as the maximal relative fluorescence unit (RFU) minus the minimal value for both compound and agonist reading frame (except for hM1 and rM1 using only the maximal RFU). Data are analyzed using sigmoidal fits of a non-linear curve-fitting program (XLfit version 4.2.2 Excel add-in version 4.2.2 build 18 math 1Q version 2.1.2 build 18). All pEC50 and pIC50 values are reported as arithmetic means±standard error of mean of ‘n’ independent experiments.

Row | Structure (SMILES) | ED50 [1] | EC50 [2]
1 | CN1CC[C@]23c4c5ccc(O)c4O[C@H]2[C@@H](O)C=C[C@H]3[C@H]1C5 [Morphine, reference compound] | 3.8 µmol/kg | –
2 | CC#CCOC(=O)N1CCC(C)(N2CCC(N3C(=O)N[C@H]4CCCC[C@@H]43)CC2)C1 (single isomer, unassigned) [Example 20] | – | 257 nM
